{"source": "patent US20030031647A1", "about": "“IFN-alpha and amantadine for treating hepatitis C” (priority 1997, published 2003)", "key": {"PBMC": {"system": "PBMC", "assay": "PBMC viability, proliferation and cytotoxicity (non-isotopic cell-proliferation and cytotoxicity assays)", "assay_type": "cell-based, human", "conditions": "for PBMC proliferation: PBMC from healthy donors", "experimental": "(§1) PBMC were isolated from heparinized venous blood by Ficoll-Hypaque gradient sedimentation. The interphase PBMC were isolated, washed twice with phosphate-buffered saline, and suspended in RPMI. The viability of these cells was assessed by trypan blue exclusion. PBMC were cultured in duplicate at a concentration of 2×10^6 viable cells/ml in 6-well tissue culture dusters, in a humid atmosphere with 5% CO2 for 7 days. The cultures have been maintained without mitogens (medium alone) or were stimulated with single mitogens (Phytohemagglutinin (PHA) or Lipopolysaccharide (LPS) or with PHA plus LPS (10 μg/ml each)(Martin et al., Cytokine 8, 313-317 (1996)). PBMC proliferation, and the possible drug-induced cytotoxicity, were measured using non-isotopic cell-proliferation and cytotoxicity assays."}, "Hepatitis C Virus": {"system": "Hepatitis C Virus", "assay": "HCV RNA in cultured PBMC from chronic hepatitis C patients (RT-PCR, AMPLICOR HCV MONITOR assay)", "assay_type": "cell-based, Hepatitis C virus (subtype 1b prevalent) in human PBMC", "conditions": "for Number of cases with HCV RNA Negative / Number of cases with reduction in HCV RNA concentration >25% / Number of cases with reduction in HCV RNA concentration >50% / Number of cases with reduction in HCV RNA concentration >75%: IFN-α2A 0 IU/ml, PBMC, n = 15", "experimental": "Antiviral Effect of Amantadine and IFN-α2A Against Hepatitis C Virus on Peripheral Blood Mononuclear Cells (PBMC) from Chronic Hepatitis C Patients\nMononuclear cells from patients with chronic hepatitis C (serum anti-HCV and HCV RNA positive with histologically proven chronic hepatitis) were analyzed for the presence of HCV RNA, using reverse transcription and PCR techniques with universal primers from the highly conserved 5′ non-coding region of the HCV genome (Navas et al., J. Hepatol. 21, 182-186 (1994)). Typing and subtyping of HCV genomes were performed by RFLP analysis of PCR products (Navas et al., J. Clin. Microbiol. 21, 317-321(1997)). For the purpose of this study, only cases infected by a single genotype have been considered, in order to minimize the possible interference of multiple genotypes, in the subject population, HCV subtype 1b was prevalent (Pernas et al., J. Gen. Virol. 76, 415-420(1995)). Thus, HCV RNA-positive PBMC obtained from 15 patients have been analyzed in vitro for the effects of treatment. PBMC from 10 matched healthy donors have been used as controls and analyzed similarly.\nas §1\nThe effect of experimental treatments with amantadine alone, in combination with IFN-α2A and those of IFN-α2A alone, have been established by testing HCV RNA in cultured mononuclear cells, compared with untreated PBMC from patients (Martin et al., supra); specificity controls were as described previously by Navas et al. in J. Hepatol. 21, 182-186 (1994). Treatment of mononuclear cells form healthy donors with amantadine alone, in combination with IFN-α2A or with IFN-α2A alone, served as controls. Changes in HCV RNA concentrations were measured by the AMPLICOR™ HCV MONITOR assay (Roche Diagnostic System, Inc., Branchburg)."}, "[1]": {"conditions": "amantadine 1-5 μM, cultured PBMC from HCV patients and healthy donors"}}, "data": [{"smiles": "NC12CC3CC(CC(C3)C1)C2", "note": "[Amantadine, tricyclo[3.3.1.1^3,7]decane-1-amine]", "values": [{"measurement": "PBMC proliferation", "setting": "PBMC; amantadine 50 μM", "result": "slightly decreased PBMC proliferation"}, {"measurement": "PBMC proliferation", "setting": "PBMC; amantadine 500 μM", "result": "marked anti-proliferative effect"}, {"measurement": "cell viability", "setting": "PBMC; [1]", "result": "did not affect the cell viability"}, {"measurement": "response to mitogens", "setting": "PBMC; [1]", "result": "minor effects on the response to mitogens"}, {"measurement": "PBMC cultures in which HCV RNA became negative", "setting": "Hepatitis C Virus; 2 μM amantadine, 1/15 patients", "result": 7, "unit": "%"}, {"measurement": "PBMC cultures in which HCV RNA became negative", "setting": "Hepatitis C Virus; 5 μM amantadine, 3/15 patients", "result": 20, "unit": "%"}, {"measurement": "Number of cases with HCV RNA Negative", "setting": "Hepatitis C Virus; Amantadine 1 μM", "result": 0}, {"measurement": "Number of cases with reduction in HCV RNA concentration >25%", "setting": "Hepatitis C Virus; Amantadine 1 μM", "result": 3}, {"measurement": "Number of cases with reduction in HCV RNA concentration >50%", "setting": "Hepatitis C Virus; Amantadine 1 μM", "result": 2}, {"measurement": "Number of cases with reduction in HCV RNA concentration >75%", "setting": "Hepatitis C Virus; Amantadine 1 μM", "result": 3}, {"measurement": "Number of cases with HCV RNA Negative", "setting": "Hepatitis C Virus; Amantadine 2 μM", "result": 1}, {"measurement": "Number of cases with reduction in HCV RNA concentration >25%", "setting": "Hepatitis C Virus; Amantadine 2 μM", "result": 5}, {"measurement": "Number of cases with reduction in HCV RNA concentration >50%", "setting": "Hepatitis C Virus; Amantadine 2 μM", "result": 2}, {"measurement": "Number of cases with reduction in HCV RNA concentration >75%", "setting": "Hepatitis C Virus; Amantadine 2 μM", "result": 4}, {"measurement": "Number of cases with HCV RNA Negative", "setting": "Hepatitis C Virus; Amantadine 5 μM", "result": 3}, {"measurement": "Number of cases with reduction in HCV RNA concentration >25%", "setting": "Hepatitis C Virus; Amantadine 5 μM", "result": 2}, {"measurement": "Number of cases with reduction in HCV RNA concentration >50%", "setting": "Hepatitis C Virus; Amantadine 5 μM", "result": 2}, {"measurement": "Number of cases with reduction in HCV RNA concentration >75%", "setting": "Hepatitis C Virus; Amantadine 5 μM", "result": 3}]}]}
